Experimental data reported in patent US12465609B2, “Methods of treating patients suffering from a disease condition or disorder that is associated with an increased glutamate level” (veriNOS operations GmbH, priority 2022, dated 2025).

Assays:
[1] = tested on: extracellular brain lactate level; test: Brain microdialysis, extracellular cerebral lactate levels in TBI patients; assay type: in vivo, human
Experimental: To monitor the metabolic condition of the patients, extracellular brain glutamate and lactate levels were measured. In more detail, the extracellular intracerebral glutamate and lactate levels measured here is the glutamate or lactate level in brain extracellular fluid (ECF). […] The measurements of the glutamate and lactate levels was carried out using established brain microdialysis (MD) methodology as described, for example, by Chamoun et al, example. Role of extracellular glutamate measured by cerebral microdialysis in severe traumatic brain injury. J Neurosurg. 2010 September; 113(3): 564-570.
The microdialysis (MD) equipment was obtained from M Dialysis AB, Stockholm, Sweden, see www.mdialysis.com. The following equipment was used. • Cerebral MD catheters: CMA 70 • CMA 70 bolt catheter • CMA 71 high cut-off cerebral catheter • Pumps: CMA106=fixed flow rate, CMA107=flexible flow rate • Perfusion solution: Cerebral: Perfusion fluid CNS • Analyzers: CMA 600, ISCUS, ISCUSflex Time Point of MD Catheter Insertion • Aim: Obtain stable baseline values before infusing study drug • Ideal: By 14 hours after TBI or 4 hours before study drug infusion to allow for tissue adaptation, usually lasting 1-4 hours • Compromise: As soon as possible, within 4 hours after beginning study drug infusion Site of Cerebral MD Catheter Insertion • Aim: Monitor metabolic changes close to structural damage visible on routine CT scan • Contusion: Close to the contusion • Mixed lesions: Predominantly injured hemisphere • With bolt system: Right or left frontal lobe • Without bolt system: Right or left frontal/temporal/parietal area • If possible cerebral MD catheter should be placed ipsilateral to the ICP probe • Special care should be taken to avoid inducing injury to pre- and postcentral cortex • The position of the MD probe and the position of the ICP probe in the eCRF should be indicated.
The cerebral glutamate and lactate levels were recorded every 1 h up to 5 days after the start of the infusion. Absolute values were be summarized per treatment group and for each time point by means of descriptive statistics. The 95% confidence intervals for the mean were calculated (normal approximation).
For the analysis of the metabolic state, it was considered that under normal (physiological) conditions glutamate is maintained at low levels (micromolar) in the extracellular space (<2 μmol/L) and in plasma (50-100 μmol/L) to avoid excessive glutamate receptor activation. Within the different intracellular compartments glutamate is present in higher amounts (5-15 millimolar). In brain microdialysis, glutamate levels exceeding 10 μmol/L are considered elevated, higher glutamate levels are associated with worse outcome. In addition to the absolute levels, dynamic changes are also important in interpreting underlying pathology. In brain microdialysis and blood, lactate levels exceeding 2.5 millimol/L are considered pathologically elevated, reflecting insufficient metabolic/energetic stability which is further aggravated by insufficient oxygen supply.

[2] = Safety and adverse event analyses, NOSTRA III; assay type: in vivo
Experimental: Safety analyses was performed using standard descriptive methods.
The total number of treatment-emergent adverse events (TEAE) and the total number of patients with TEAEs, the total number of TEAEs related to the study drug (certain, probable, possible), the total number of patients with TEAEs related to the study drug, the total number of TEAEs and the total number of patients with serious TEAEs, the total number of patients with TEAEs leading to discontinuation of study treatment and the total number of patients with TEAEs leading to death were summarised by treatment arm.

## C[C@H](O)[C@H](O)C1CNc2nc(N)nc(N)c2N1 (mixture of isomers) [Ronopterin, 4-Amino-(6R,S)-5,6,7,8-tetrahydro-L-biopterin]
[1]; 18 to 39 years, all times to infusion, patients reaching <2.5 millimol/L (FIG. 7A)
  extracellular cerebral lactate levels: lower brain lactate levels compared to the placebo group
[1]; 18 to 39 years, infusion >12 hours, a number of patients <2.5 millimol/L (FIG. 8C)
  extracellular cerebral lactate levels: lower brain lactate levels than the placebo group
[1]; 18 to 39 years, infusion ≤12 hours, a number of patients <2.5 millimol/L (FIG. 8A)
  extracellular cerebral lactate levels: lower brain lactate levels than the placebo group
[1]; 40 to 60 years, all times to infusion, all patients, higher than placebo (FIG. 7C)
  extracellular cerebral lactate levels: ≥ 2.5 millimol/L
[1]; 40 to 60 years, infusion ≤12 hours, all patients, higher than placebo (FIG. 9A)
  extracellular cerebral lactate levels: ≥ 2.5 millimol/L
[1]; within 120 hours after administration, stayed below threshold or only slightly elevated
  extracellular brain lactate levels: < 2.5 millimol/L
[2]; Ronopterin:placebo 11:3
  number of renal AEs: 11
[2]; no significant new safety findings
  tolerability of study treatment: well-tolerated
[2]; placebo 11.7%
  proportion of patients with ICP increased (AE): 23.9%
[2]; placebo 13
  number of patients with ICP increased (AE): 27 patients
[2]; related AE/SAEs low and comparable
  number of adverse events (AEs) and serious adverse events (SAEs) compared to the placebo groups: slightly higher number
